# Results reported in PMC12365925, “Structural insights into a bacterial terpene cyclase fused with haloacid Dehalogenase-like phosphatase” (Chemical Science, 2025).
# Molecular target: T1, AsDMS (wild-type drimenol synthase) (Aquimarina spongiae, UniProt A0A1M6CXF0)
# T1 construct: gene SAMN04488508_102320; wild-type, bifunctional N-terminal HAD and C-terminal TCbeta domains; dimer by gel filtration
# Assay: steady-state kinetics of dephosphorylation
# Type: biochemical
# Details: HAD domain phosphatase site, Mg2+-dependent
# T1 sequence (A0A1M6CXF0 entry or part of it): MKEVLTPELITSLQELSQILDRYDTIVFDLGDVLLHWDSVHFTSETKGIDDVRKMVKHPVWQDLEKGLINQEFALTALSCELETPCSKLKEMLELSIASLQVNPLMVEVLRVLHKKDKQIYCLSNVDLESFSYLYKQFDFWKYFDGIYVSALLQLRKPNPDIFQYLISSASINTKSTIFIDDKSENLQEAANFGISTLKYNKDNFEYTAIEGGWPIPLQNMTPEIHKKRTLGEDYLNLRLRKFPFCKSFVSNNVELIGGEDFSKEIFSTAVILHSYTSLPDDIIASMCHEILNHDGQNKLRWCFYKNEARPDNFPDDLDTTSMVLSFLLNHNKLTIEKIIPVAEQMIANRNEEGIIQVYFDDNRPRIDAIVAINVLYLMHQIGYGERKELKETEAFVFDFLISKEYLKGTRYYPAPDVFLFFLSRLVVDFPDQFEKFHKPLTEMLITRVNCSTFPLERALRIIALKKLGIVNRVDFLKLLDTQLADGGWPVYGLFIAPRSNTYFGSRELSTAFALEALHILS
structure (smiles),measurement,value
"CC1=CC[C@H]2C(C)(C)CCC[C@]2(C)[C@H]1COP(=O)(O)O [compound 3, drimenyl monophosphate]",Km,5.81 ± 0.81 µM
